Data on 74 molecules can be found in patent US8232406B2, “c-MET protein kinase inhibitors” (Vertex Pharmaceuticals Incorporated, priority 2006, dated 2012).

One may read the Ki as a measure of affinity in units of concentration, obtained from inhibition or displacement. Read a low Ki as higher affinity.

The target in the assay is c-MET (Homo sapiens, UniProt P08581). In words: Ki determination for the inhibition of c-MET (standard radiometric 33P-ATP kinase assay, polyE4Y substrate). It counts as biochemical. The note with it: 1.0 nM c-Met, 35 μM ATP, 0.5 mg/mL polyE4Y, 20 min; competitive tight-binding fit. Summed up: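 Radiometric assay of 33P transfer from 33P-ATP (35 μM) to polyE4Y (0.5 mg/mL) by 1.0 nM c-Met in 100 mM HEPES pH 7.5, 10 mM MgCl2, 25 mM NaCl, 0.01% BSA, 1 mM DTT. TCA-quenched after 20 min, filter-captured, scintillation-counted; Ki fitted to a competitive tight-binding model.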
Chain of c-MET (P08581 25-1390): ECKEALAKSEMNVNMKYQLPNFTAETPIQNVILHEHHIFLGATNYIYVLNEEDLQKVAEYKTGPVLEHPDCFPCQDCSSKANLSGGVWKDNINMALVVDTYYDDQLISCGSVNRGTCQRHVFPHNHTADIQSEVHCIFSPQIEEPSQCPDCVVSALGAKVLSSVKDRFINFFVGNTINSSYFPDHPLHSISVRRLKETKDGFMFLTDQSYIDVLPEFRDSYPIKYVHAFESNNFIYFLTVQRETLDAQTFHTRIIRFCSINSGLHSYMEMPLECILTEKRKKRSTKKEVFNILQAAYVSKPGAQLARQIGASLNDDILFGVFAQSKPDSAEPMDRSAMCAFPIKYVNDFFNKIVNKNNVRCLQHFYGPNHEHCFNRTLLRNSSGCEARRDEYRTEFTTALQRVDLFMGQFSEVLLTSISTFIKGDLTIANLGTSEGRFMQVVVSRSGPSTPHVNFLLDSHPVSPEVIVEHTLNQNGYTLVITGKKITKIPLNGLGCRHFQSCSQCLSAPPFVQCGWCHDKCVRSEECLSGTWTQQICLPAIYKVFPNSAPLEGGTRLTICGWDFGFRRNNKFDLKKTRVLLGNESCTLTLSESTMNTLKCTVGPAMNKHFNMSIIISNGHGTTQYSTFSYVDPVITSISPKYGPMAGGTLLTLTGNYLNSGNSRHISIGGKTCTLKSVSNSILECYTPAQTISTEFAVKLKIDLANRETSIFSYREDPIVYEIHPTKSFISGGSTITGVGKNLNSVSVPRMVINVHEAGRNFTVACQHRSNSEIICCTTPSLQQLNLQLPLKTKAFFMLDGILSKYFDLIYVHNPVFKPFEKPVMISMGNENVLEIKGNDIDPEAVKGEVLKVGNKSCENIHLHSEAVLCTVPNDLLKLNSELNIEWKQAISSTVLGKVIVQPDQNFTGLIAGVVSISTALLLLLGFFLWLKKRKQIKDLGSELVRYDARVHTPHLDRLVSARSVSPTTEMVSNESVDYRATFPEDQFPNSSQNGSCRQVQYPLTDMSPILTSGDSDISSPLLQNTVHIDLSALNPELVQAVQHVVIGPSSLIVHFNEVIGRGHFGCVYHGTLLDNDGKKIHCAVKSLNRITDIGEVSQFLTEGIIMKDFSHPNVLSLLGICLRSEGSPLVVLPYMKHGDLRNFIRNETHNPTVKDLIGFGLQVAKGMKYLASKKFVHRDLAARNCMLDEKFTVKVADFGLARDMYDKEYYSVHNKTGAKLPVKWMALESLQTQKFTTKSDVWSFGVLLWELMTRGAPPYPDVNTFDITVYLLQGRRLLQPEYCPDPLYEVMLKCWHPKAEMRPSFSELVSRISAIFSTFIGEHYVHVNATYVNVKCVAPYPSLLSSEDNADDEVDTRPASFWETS

As for `CN1CCN(c2ccc(-c3cnc(N)c(-c4nn(C)cc4-c4cccc(Cl)c4Cl)c3)cc2)CC1` [I-B-21], the Ki was in the range of 100 to 1000 nM.
Turning to `COCCN1CCC(n2cc(-c3cnc(N)c(-c4nncn4-c4cccc(F)c4F)c3)cn2)CC1` [I-A-476], the Ki was not above 100 nM.
Molecule `CC(=O)N1CCN(Cc2ccc(-c3cnc(N)c(-c4nc5cnccc5n4-c4cccc(F)c4F)c3)cc2)CC1` [I-D-6] gave a Ki not above 100 nM.
`Nc1nc2cc(F)c(-c3cnc(N)c(-c4nncn4-c4cccc(F)c4F)n3)cc2[nH]1` [I-A-56] returned a Ki not above 100 nM.
For the molecule `Nc1ncc(-c2cnn(C3CCNCC3)c2)cc1-c1nnnn1-c1cc(Cl)ccc1F` [I-A-635], the Ki is not above 100 nM.
For `Nc1ncc(-c2ccn(C3CCNCC3)c2)nc1-c1nnnn1-c1cccc(F)c1F` [I-A-534], the Ki is not above 100 nM.
`Nc1ncc(-c2nc3c(s2)CNCC3)nc1-c1nnnn1-c1cccc(F)c1F` [I-A-537] had a Ki of 100 to 1000 nM.
The same measure for `COC(=O)c1cccc(-c2cnc(N)c(-c3nnnn3-c3cccc(F)c3F)c2)c1` [I-A-317]: 100 to 1000 nM; for `CN(C)Cc1ccc(-c2cnc(N)c(-c3nnnn3-c3cc(F)ccc3Cl)c2)cc1` [I-A-592]: 100 to 1000 nM.
On to `CN(C)Cc1ccc(-c2cnc(N)c(-c3nnnn3-c3cccc(F)c3Cl)c2)cc1` [I-A-387], for which the Ki was in the range of 100 to 1000 nM.
As to `CCOC(=O)CC(=O)Nc1ccc(-c2cnc(N)c(-c3nnnn3-c3cccc(F)c3F)c2)cc1` [I-A-196], the Ki was 100 to 1000 nM.
As for `Nc1ncc(-c2ccc(N3CCCC3)nc2)cc1-c1nncn1-c1cccc(F)c1F` [I-A-40], the inhibition constant Ki lay in the range of 100 to 1000 nM.
Turning to `Nc1ncc(-c2cccc(NC(=O)C3CC3)c2)cc1-c1nnnn1-c1cccc(F)c1F` [I-A-261], the Ki is not above 100 nM.
Regarding `Nc1ncc(-c2ccc(CN3CCCC3)cc2)cc1-c1nnnn1-c1cc(F)ccc1F` [I-A-594], the Ki was in the range of 100 to 1000 nM.
As to `CN1CCOc2cc(-c3cnc(N)c(-c4nnnn4-c4cccc(F)c4F)c3)ccc21` [I-A-289], the Ki is 100 to 1000 nM.
The molecule `COCC(=O)Nc1ccc(-c2cnc(N)c(-c3nnnn3-c3cccc(F)c3F)c2)cc1` [I-A-342] had a Ki not above 100 nM.
`Nc1ncc(-c2ccc(CCN3CCCC3)cc2)cc1-c1nnnn1-c1cccc(F)c1F` [I-A-181] registered a Ki not above 100 nM.
As to `COc1c(F)cccc1-n1nnnc1-c1cc(-c2cnn(C3CCNCC3)c2)cnc1N` [I-A-638], the inhibition constant Ki was in the range of 100 to 1000 nM.
The molecule `Nc1ncc(-c2cnn(Cc3ccccc3)c2)cc1-c1nnnn1-c1cccc(F)c1F` [I-A-349] displayed a Ki not above 100 nM.
Next, `Nc1ncc(-c2csc(C3CCNCC3)c2)cc1-c1nnnn1-c1cccc(F)c1F` [I-A-463]: not above 100 nM; `Nc1ncc(-c2cnn([C@@H]3CCOC3)c2)cc1-c1nnnn1-c1cccc(-c2cnn([C@@H]3CCOC3)c2)c1F` [I-A-421]: 100 to 1000 nM.
In turn, `Nc1ncc(-c2csc(C3CCNCC3)c2)nc1-c1nnnn1-c1cccc(F)c1F` [I-A-654] registered a Ki of 100 to 1000 nM.
Molecule `CC(C)CN(C)Cc1ccc(-c2cnc(N)c(-c3nnnn3-c3cccc(F)c3F)c2)cc1` [I-A-150] returned a Ki not above 100 nM.
With `Nc1ncc(-c2cnn([C@@H]3CCOC3)c2)cc1-c1nnnn1-c1cccc(F)c1F` [I-A-419], the Ki was not above 100 nM.
As for `Nc1nc2cc(-c3cnc(N)c(-c4nnnn4-c4cccc(F)c4F)c3)c(F)cc2[nH]1` [I-A-141], the Ki is not above 100 nM.
`Nc1ncc(C2=CCN(C(=O)C3CCCNC3)CC2)cc1-c1nnnn1-c1cccc(F)c1F` (centres unmarked) [I-A-423] yielded an inhibition constant (Ki) not above 100 nM.
Molecule `Nc1ncc(-c2cnn(C3CCN(CC4CCCC4)CC3)c2)cc1-c1nnnn1-c1cccc(Cl)c1F` [I-A-474] gave an inhibitory constant (Ki) not above 100 nM.
`Cc1c(Cl)cccc1-n1nnnc1-c1cc(-c2cnn(C3CCNCC3)c2)cnc1N` [I-A-624] registered a Ki not above 100 nM.
In turn, `Nc1ncc(-c2cnn(C3CCNCC3)c2)cc1-c1nnnn1-c1cc(Cl)ccc1Cl` [I-A-636] registered an inhibitory constant (Ki) of 100 to 1000 nM.
The molecule `Nc1ncc(-c2ccc(NC(=O)Nc3cccs3)cc2)cc1-c1nnnn1-c1cccc(F)c1F` [I-A-282] had a Ki of 100 to 1000 nM.
The molecule `Nc1ncc(-c2cc3c(s2)CNCC3)nc1-c1nnnn1-c1cccc(Cl)c1F` [I-A-542] yielded a Ki not above 100 nM.
In the case of `CC(c1ccc(-c2cnc(N)c(-c3nnnn3-c3cccc(Cl)c3Cl)c2)cc1)N(C)C` (centres unmarked) [I-A-100], the Ki is not above 100 nM.
`Nc1ncc(-c2ccc(F)c(Cl)c2)cc1-c1nncn1-c1cccc(F)c1F` [I-A-111] gave a Ki of 100 to 1000 nM.
For the molecule `Nc1ccc(-c2cnc(N)c(-c3nnnn3-c3cccc(Cl)c3Cl)c2)cc1` [I-A-86], the Ki is not above 100 nM.
In turn, `CC1(C)CN(c2ccc(-c3cnc(N)c(-c4nnnn4-c4cccc(F)c4F)c3)cc2)C1=O` [I-A-357] returned a Ki of 100 to 1000 nM.
As to `C[C@H](c1ccc(-c2cnc(N)c(-c3nnnn3-c3cccc(F)c3F)c2)cc1)N1CCCC1` [I-A-212], the Ki was not above 100 nM.
The same measure for `Nc1ncc(-c2cnn(C3CCN(CC(F)F)CC3)c2)cc1-c1nnnn1-c1cccc(F)c1F` [I-A-453]: not above 100 nM; for `Nc1ncc(C2=CCN(CC3CCOC3)CC2)cc1-c1nnnn1-c1cccc(F)c1F` (centres unmarked) [I-A-643]: 100 to 1000 nM; for `Nc1ncc(-c2ccc(NC(=O)c3ccncc3)cc2)cc1-c1nnnn1-c1cccc(F)c1F` [I-A-280]: not above 100 nM.
`Nc1ncc(-c2cccc(O)c2)cc1-c1nnnn1-c1cccc(F)c1F` [I-A-247] showed a Ki not above 100 nM.
`Nc1ncc(-c2cnn(C3CCNCC3)c2)cc1-c1nnnn1-c1cccc(F)c1Cl` [I-A-385] yielded a Ki not above 100 nM.
In the case of `NC(=O)[C@@H]1CCCN1Cc1ccc(-c2cnc(N)c(-c3nnnn3-c3cccc(Cl)c3Cl)c2)cc1` [I-A-121], the Ki is not above 100 nM.
`Nc1ncc(-c2cnc(C3CCNCC3)s2)cc1-c1nnnn1-c1cccc(Cl)c1F` [I-A-491] had a Ki not above 100 nM.
The same measure for `CN(C)Cc1ccc(-c2cnc(N)c(-c3nnnn3-c3cccc(F)c3F)c2)cn1` [I-A-154]: 100 to 1000 nM; for `Cn1cncc1-c1cnc(N)c(-c2nnnn2-c2cccc(F)c2F)c1` [I-A-496]: 100 to 1000 nM.
For `Nc1ncc(-c2cnn([C@H]3CCOC3)c2)cc1-c1nnnn1-c1cccc(F)c1F` [I-A-425], the Ki is not above 100 nM.
The same measure for `COC(=O)C(N)c1ccc(-c2cnc(N)c(-c3nnnn3-c3cccc(F)c3F)c2)cc1` (centres unmarked) [I-A-206]: not above 100 nM; for `Nc1ncc(-c2ccc(CNC3CCC3)cc2)cc1-c1nnnn1-c1cccc(F)c1F` [I-A-151]: not above 100 nM; for `CC(C)Oc1ccc(-c2cnc(N)c(-c3nnnn3-c3cccc(F)c3F)c2)cc1` [I-A-240]: 100 to 1000 nM.
The molecule `CN1CCN(c2ccc(-c3cnc(N)c(-c4ncsc4-c4cccc(Cl)c4Cl)c3)cc2)CC1` [I-C-11] returned a Ki of 100 to 1000 nM.
Molecule `CC(=O)Nc1ccc(-c2cnc(N)c(-c3nnnn3-c3cccc(F)c3F)c2)cc1` [I-A-138] showed a Ki not above 100 nM.
As for `Nc1ncc(-c2ccc(CN3CCOCC3)cc2)nc1-c1nncn1-c1cccc(F)c1F` [I-A-5], the Ki was not above 100 nM.
The molecule `COc1c(F)cccc1-n1nnnc1-c1cc(-c2ccc(NC(C)=O)cc2)cnc1N` [I-A-588] gave a Ki of 100 to 1000 nM.
Next, `Nc1ncc(-c2cnn(C3CNC3)c2)cc1-c1nnnn1-c1cccc(Cl)c1Cl` [I-A-427]: not above 100 nM; `Nc1ncc(-c2cncs2)cc1-c1nnnn1-c1cccc(F)c1F` [I-A-540]: not above 100 nM.
On to `CC(C)C(=O)N1CCC(n2cc(-c3cnc(N)c(-c4nnnn4-c4cccc(Cl)c4F)c3)cn2)CC1` [I-A-441], for which the inhibition constant Ki is not above 100 nM.
Take `CN(C)CCCNC(=O)c1ccc(-c2cnc(N)c(-c3nnnn3-c3cccc(Cl)c3Cl)c2)cc1` [I-A-125]: the Ki was not above 100 nM.
In turn, `Nc1ncc(-c2cnn(C3CCN(CCO)CC3)c2)cc1-c1nnnn1-c1cccc(Cl)c1F` [I-A-469] yielded a Ki not above 100 nM.
For `Nc1ncc(-c2cnn(C3CCN(C(=O)CO)CC3)c2)cc1-c1nnnn1-c1cccc(Cl)c1F` [I-A-447], the Ki is not above 100 nM.
The same measure for `Nc1ncc(-c2ccn[nH]2)cc1-c1nnnn1-c1cccc(F)c1F` [I-A-248]: 100 to 1000 nM.
The same measure for `Nc1ncc(-c2cccc(NC(=O)CN3CCCC3)c2)cc1-c1nnnn1-c1cccc(F)c1F` [I-A-259]: not above 100 nM; for `Nc1ncc(-c2ccc(N3CCCC3=O)cc2)cc1-c1nnnn1-c1cccc(F)c1F` [I-A-189]: not above 100 nM.
Molecule `NCc1cccc(-c2cnc(N)c(-c3nnnn3-c3cccc(Cl)c3Cl)c2)c1` [I-A-87] showed a Ki not above 100 nM.
Next, `Nc1ncc(-c2ccc(C3CCNCC3)s2)cc1-c1nnnn1-c1cccc(F)c1F` [I-A-415]: not above 100 nM; `COC(=O)C(C)NC(=O)Nc1ccc(-c2cnc(N)c(-c3nnnn3-c3cccc(F)c3F)c2)cc1` (centres unmarked) [I-A-331]: not above 100 nM.
As for `Nc1ncc(-c2ccc(C3CCCN3)cc2)cc1-c1nnnn1-c1cccc(F)c1F` (centres unmarked) [I-A-258], the Ki is not above 100 nM.
The same measure for `COCCOC(=O)N1CCC(n2cc(-c3cnc(N)c(-c4nnnn4-c4cccc(Cl)c4F)c3)cn2)CC1` [I-A-440]: not above 100 nM; for `Nc1ncc(-c2ccsc2)cc1-c1nncn1-c1cccc(Cl)c1Cl` [I-A-70]: 100 to 1000 nM; for `N#Cc1ccc(-c2cnc(N)c(-c3nncn3-c3cccc(F)c3F)c2)cc1` [I-A-113]: 100 to 1000 nM.
On to `Nc1ncc(-c2ccc(CN3CCCC3)cc2)cc1-c1nnnn1-c1c(F)ccc(F)c1Cl` [I-A-620], for which the inhibitory constant (Ki) is not above 100 nM.
Take `CN(C(=O)Nc1ccc(-c2cnc(N)c(-c3nnnn3-c3cccc(F)c3F)c2)cc1)c1ccccc1` [I-A-279]: the Ki is 100 to 1000 nM.
On to `CC(C)(C)NC(=O)Nc1ccc(-c2cnc(N)c(-c3nnnn3-c3cccc(F)c3F)c2)cc1` [I-A-332], for which the Ki was not above 100 nM.
Regarding `CN(C)Cc1ccc(-c2cnc(N)c(-c3nc4cnccc4n3-c3cccc(F)c3F)c2)cc1` [I-D-4], the Ki was not above 100 nM.
Molecule `CCOc1cccc(-c2cnc(N)c(-c3nnnn3-c3cccc(F)c3F)c2)c1` [I-A-315] had a Ki of 100 to 1000 nM.
